The values that follow come from patent US12227495B2, “Herbicidal compounds” (SYNGENTA CROP PROTECTION AG, priority 2018, dated 2025).

What all share (assay type): in vivo
Common to all, as to settings: evaluated after 13 days

Assay [1] relates to Solanum nigrum (SOLNI). In words: Pre-emergence herbicide test, glasshouse, percentage damage. Here is the method:
(§1) Seeds of a variety of test species are sown in standard soil in pots (Lolium perenne (LOLPE), Solanum nigrum (SOLNI), Amaranthus retoflexus (AMARE), Setaria faberi (SETFA), Echinochloa crus-galli (ECHCG), Ipomoea hederacea (IPOHE)). After cultivation for one day (pre-emergence) or after 8 days cultivation (post-emergence) under controlled conditions in a glasshouse (at 24/16° C., day/night; 14 hours light; 65% humidity), the plants are sprayed with an aqueous spray solution derived from the formulation of the technical active ingredient in acetone/water (50:50) solution containing 0.5% Tween 20 (polyoxyethelyene sorbitan monolaurate, CAS RN 9005-64-5). Compounds are applied at 500 g/ha unless otherwise stated. The test plants are then grown in a glasshouse under controlled conditions in a glasshouse (at 24/16° C., day/night; 14 hours light; 65% humidity) and watered twice daily. After 13 days for pre and post-emergence, the test is evaluated for the percentage damage caused to the plant. The biological activities are shown in the following table on a five point scale (5=81-100%; 4=61-80%; 3=41-60%; 2=21-40%; 1=0-20%).

In assay [2] the test system is Lolium perenne (LOLPE). The assay is described as above. Here is the method: as §1
Assay [3] relates to Amaranthus retoflexus (AMARE). The assay is described as above. As for the experimental part:
as §1

In assay [4] the test system is Echinochloa crus-galli (ECHCG). The description is as above. Here is the method:
as §1

Assay [5] has as its system Ipomoea hederacea (IPOHE). Described as above. As for the experimental part:
as §1

The subject of assay [6] is Setaria faberi (SETFA). Described as above. Here is the method: as §1
Assay [7] concerns Solanum nigrum (SOLNI). In words: Post-emergence herbicide test, glasshouse, percentage damage. As for the experimental part:
as §1

The test system of assay [8] is Lolium perenne (LOLPE). The description is as above. Here is the method:
as §1

The subject of assay [9] is Amaranthus retoflexus (AMARE). Described as above. As for the experimental part: as §1
The test system of assay [10] is Echinochloa crus-galli (ECHCG). The description is as above. As for the experimental part:
as §1

The test system of assay [11] is Ipomoea hederacea (IPOHE). The description is as above. Here is the method: as §1
The test system of assay [12] is Setaria faberi (SETFA). The description is as above. As for the experimental part:
as §1

In the case of `FC(F)(F)c1ccc(Oc2ccccc2-n2cc(C(F)(F)F)cn2)nc1` [Compound A15], in the assay with Solanum nigrum (SOLNI) [1] (rate 1000 g/ha), the “Pre-emergence Test SOLNI percentage damage (five point scale)” value is 4 (4=61-80%). In addition, the “Pre-emergence Test LOLPE percentage damage (five point scale)” value in the assay on Lolium perenne (LOLPE) [2] (rate 1000 g/ha) was 3 (3=41-60%). The “Pre-emergence Test AMARE percentage damage (five point scale)” value in assay [3] (rate 1000 g/ha) is reported as 5 (5=81-100%). Also, the “Pre-emergence Test ECHCG percentage damage (five point scale)” value in assay [4] (rate 1000 g/ha) is 5 (5=81-100%). Further, in [5] (rate 1000 g/ha), the “Pre-emergence Test IPOHE percentage damage (five point scale)” value is given as 1 (1=0-20%). Besides, the “Pre-emergence Test SETFA percentage damage (five point scale)” value with Setaria faberi (SETFA) [6] (rate 1000 g/ha) was 5 (5=81-100%). Besides, the “percentage damage caused to the plant, SOLNI” value in the assay on Solanum nigrum (SOLNI) [7] (1000 g/ha) is 4 (4=61-80%). Besides, the “percentage damage caused to the plant, LOLPE” value with Lolium perenne (LOLPE) [8] (1000 g/ha) is 1 (1=0-20%). Also, the “percentage damage caused to the plant, AMARE” value in assay [9] (1000 g/ha) is listed as 1 (1=0-20%). Besides, in [10] (1000 g/ha), the “percentage damage caused to the plant, ECHCG” value was 2 (2=21-40%). The “percentage damage caused to the plant, IPOHE” value in [11] (1000 g/ha) is listed as 2 (2=21-40%). Further, in the assay with Setaria faberi (SETFA) [12] (1000 g/ha), the “percentage damage caused to the plant, SETFA” value is listed as 3 (3=41-60%).
For the compound `Fc1cc(Cl)cnc1Oc1ccccc1-n1cc(C(F)(F)F)cn1` [Compound A16], the “Pre-emergence Test SOLNI percentage damage (five point scale)” value with Solanum nigrum (SOLNI) [1] (rate 1000 g/ha) was 5 (5=81-100%). Also, the “Pre-emergence Test LOLPE percentage damage (five point scale)” value in the assay with Lolium perenne (LOLPE) [2] (rate 1000 g/ha) is 5 (5=81-100%). Also, in assay [3] (rate 1000 g/ha), the “Pre-emergence Test AMARE percentage damage (five point scale)” value is 5 (5=81-100%). Also, in assay [4] (rate 1000 g/ha), the “Pre-emergence Test ECHCG percentage damage (five point scale)” value is 5 (5=81-100%). Besides, the “Pre-emergence Test IPOHE percentage damage (five point scale)” value in [5] (rate 1000 g/ha) was 5 (5=81-100%). Also, in the assay with Setaria faberi (SETFA) [6] (rate 1000 g/ha), the “Pre-emergence Test SETFA percentage damage (five point scale)” value is 5 (5=81-100%). Also, the “percentage damage caused to the plant, SOLNI” value in the assay on Solanum nigrum (SOLNI) [7] (1000 g/ha) is 5 (5=81-100%). In the assay on Lolium perenne (LOLPE) [8] (1000 g/ha), the “percentage damage caused to the plant, LOLPE” value is recorded as 5 (5=81-100%). Moreover, in assay [9] (1000 g/ha), the “percentage damage caused to the plant, AMARE” value was 4 (4=61-80%). Moreover, in assay [10] (1000 g/ha), the “percentage damage caused to the plant, ECHCG” value is 5 (5=81-100%). Moreover, the “percentage damage caused to the plant, IPOHE” value in [11] (1000 g/ha) was 5 (5=81-100%). Besides, in the assay on Setaria faberi (SETFA) [12] (1000 g/ha), the “percentage damage caused to the plant, SETFA” value is recorded as 5 (5=81-100%).
For the compound `FC(F)(F)c1cnn(-c2ccccc2Oc2ccc(Cl)cn2)c1` [Compound A17], the “Pre-emergence Test SOLNI percentage damage (five point scale)” value with Solanum nigrum (SOLNI) [1] (rate 1000 g/ha) was 5 (5=81-100%). Also, the “Pre-emergence Test LOLPE percentage damage (five point scale)” value in the assay on Lolium perenne (LOLPE) [2] (rate 1000 g/ha) is reported as 5 (5=81-100%). In addition, the “Pre-emergence Test AMARE percentage damage (five point scale)” value in [3] (rate 1000 g/ha) is given as 5 (5=81-100%). The “Pre-emergence Test ECHCG percentage damage (five point scale)” value in assay [4] (rate 1000 g/ha) is 5 (5=81-100%). In addition, the “Pre-emergence Test IPOHE percentage damage (five point scale)” value in assay [5] (rate 1000 g/ha) is recorded as 5 (5=81-100%). Also, the “Pre-emergence Test SETFA percentage damage (five point scale)” value in the assay on Setaria faberi (SETFA) [6] (rate 1000 g/ha) is given as 5 (5=81-100%). In addition, the “percentage damage caused to the plant, SOLNI” value in the assay with Solanum nigrum (SOLNI) [7] (1000 g/ha) is on record as 5 (5=81-100%). Besides, the “percentage damage caused to the plant, LOLPE” value in the assay with Lolium perenne (LOLPE) [8] (1000 g/ha) was 5 (5=81-100%). For the same compound, in assay [9] (1000 g/ha), the “percentage damage caused to the plant, AMARE” value is 5 (5=81-100%). Further, the “percentage damage caused to the plant, ECHCG” value in [10] (1000 g/ha) is 5 (5=81-100%). The “percentage damage caused to the plant, IPOHE” value in assay [11] (1000 g/ha) is given as 5 (5=81-100%). In the assay on Setaria faberi (SETFA) [12] (1000 g/ha), the “percentage damage caused to the plant, SETFA” value is 5 (5=81-100%).
With `Fc1cnc(Oc2ccccc2-n2cc(C(F)(F)F)cn2)c(F)c1` [Compound A18], the “Pre-emergence Test SOLNI percentage damage (five point scale)” value with Solanum nigrum (SOLNI) [1] (rate 250 g/ha) is 5 (5=81-100%). In addition, the “Pre-emergence Test LOLPE percentage damage (five point scale)” value in the assay on Lolium perenne (LOLPE) [2] (rate 250 g/ha) is 1 (1=0-20%). In addition, the “Pre-emergence Test AMARE percentage damage (five point scale)” value in [3] (rate 250 g/ha) is 5 (5=81-100%). For the same compound, the “Pre-emergence Test ECHCG percentage damage (five point scale)” value in [4] (rate 250 g/ha) is 5 (5=81-100%). Further, the “Pre-emergence Test IPOHE percentage damage (five point scale)” value in assay [5] (rate 250 g/ha) is on record as 1 (1=0-20%). In addition, the “Pre-emergence Test SETFA percentage damage (five point scale)” value in the assay on Setaria faberi (SETFA) [6] (rate 250 g/ha) is recorded as 5 (5=81-100%). Further, in the assay on Solanum nigrum (SOLNI) [7] (250 g/ha), the “percentage damage caused to the plant, SOLNI” value is on record as 3 (3=41-60%). Moreover, the “percentage damage caused to the plant, LOLPE” value with Lolium perenne (LOLPE) [8] (250 g/ha) is on record as 2 (2=21-40%). For the same compound, the “percentage damage caused to the plant, AMARE” value in assay [9] (250 g/ha) was 3 (3=41-60%). For the same compound, the “percentage damage caused to the plant, ECHCG” value in assay [10] (250 g/ha) is 4 (4=61-80%). Further, the “percentage damage caused to the plant, IPOHE” value in assay [11] (250 g/ha) was 2 (2=21-40%). The “percentage damage caused to the plant, SETFA” value in the assay on Setaria faberi (SETFA) [12] (250 g/ha) is listed as 3 (3=41-60%).
